Measured values reported in publication PMC10349806 (Nature Communications, 2023).
Numbering of substitutions follows the chain as printed. Values joined by “and” are separate entries in the source; they are usually repeats but may differ in a detail not shown here. Equal entries are not always repeated.

How the values were obtained:
[1] = molecular target: T1, PfCRT variant E271A (Plasmodium falciparum, UniProt Q9N623, A220S/I356T/K76T/M74I/N326S/N75E/Q271A/R371I); assay: CQ uptake assay, oocytes expressing E271A; type: cell-based
T1 sequence (Q9N623 1-424 M74I/N75E/K76T/A220S/Q271A/N326S/I356T/R371I): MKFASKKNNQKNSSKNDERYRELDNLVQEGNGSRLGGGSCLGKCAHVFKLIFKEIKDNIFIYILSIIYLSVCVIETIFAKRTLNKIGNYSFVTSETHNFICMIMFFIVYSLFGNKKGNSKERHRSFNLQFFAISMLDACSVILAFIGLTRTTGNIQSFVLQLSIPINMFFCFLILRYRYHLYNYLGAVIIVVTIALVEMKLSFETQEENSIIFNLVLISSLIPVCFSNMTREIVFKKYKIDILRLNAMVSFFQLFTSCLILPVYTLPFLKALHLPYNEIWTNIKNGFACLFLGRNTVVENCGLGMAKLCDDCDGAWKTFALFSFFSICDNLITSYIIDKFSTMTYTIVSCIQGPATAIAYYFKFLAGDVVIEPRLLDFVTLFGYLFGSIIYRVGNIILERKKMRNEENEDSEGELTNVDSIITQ
Procedure: (§1) Site-directed mutagenesis of PfCRT^Dd2 was performed as described using the megaprimer method with overlap extension[21],[54]. The primer pairs used are listed in Supplementary Table 6. Please note that a codon-optimized and oocyte-adapted version of PfCRT^Dd2 was used[22] (Supplementary Fig. 16). The resulting DNA fragment was cloned into the SP64T expression vector and verified by sequencing.
(§2) Oocytes were obtained as described previously. Briefly, adult (>2 years old) female X. laevis frogs (NASCO) were anesthetized in a cooled solution of ethyl 3-amino benzoate methanesulfonate (0.1%, w/v), followed by a surgical removal of parts of the ovary. The ovary lobes were carefully dissected and small pieces of oocytes were incubated in Ca^2+-free ND96 buffer (96 mM NaCl, 2 mM KCl, 1 mM MgCl2 buffered with 5 mM HEPES/NaOH, pH 7.5) supplemented with collagenase D (0.1%, w/v; Roche), BSA (0.5%, w/v), and 9 mm Na2HPO4 at 18 °C for 14-16 h while gentle shaking. After incubation, the oocytes were carefully washed several times with ND96 buffer (96 mM NaCl, 2 mM KCl, 1.8 mM CaCl2, 1 mM MgCl2 buffered with 5 mM HEPES/NaOH, pH 7.5) supplemented with 100 mg l^−1 gentamycin). Defolliculated and healthy-looking stage V-VI oocytes were manually selected for RNA microinjection. The RNA was generated as following: The codon-optimized sequences of PfCRT variants were cloned into the pSP64T expression vector. After vector linearization using the restriction endonucleases BamHI or SalI (New England Biolabs), transcription was performed using the in vitro SP6 mMessage mMachine Kit (Ambion)[34]. The obtained RNA was kept at −80 °C and diluted with nuclease-free water to a concentration of 0.6 μg μl^−1. Precision-bore glass capillary tubes (3.5-inch glass capillaries; Drummond Scientific Co.) were pulled on a vertical puller (P-87 Flaming/Brown micropipette puller, Sutter Instrument Co.), graduated, and placed on a microinjector (Nanoject II Auto-Nanoliter Injector, Drummond Scientific Co.). 50 nl of nuclease-free water alone (control oocytes) or 50 nl of 0.6 μg μl^−1 RNA were injected under stereomicroscopic control. Injected oocytes were incubated for 46–72 h at 18 °C with twice-daily buffer changes before usage in experiments.
Drug uptake assays were performed as described previously[21],[22],[24],[34]. […] Oocytes that were injected with water instead of RNA were analyzed in parallel, representing the uptake of a drug by diffusion and/or endogenous permeation pathways. […] The specific PfCRT-mediated uptake was determined by subtracting the corresponding background value measured in water-injected oocytes from that of PfCRT-expressing oocytes. […]

[2] = molecular target: T2, PfCRT variant E75A (Plasmodium falciparum, UniProt Q9N623, A220S/I356T/K76T/M74I/N326S/N75A/Q271E/R371I); assay: CQ uptake assay, oocytes expressing E75A; type: cell-based
T2 sequence (Q9N623 1-424 M74I/N75A/K76T/A220S/Q271E/N326S/I356T/R371I): T1 sequence (Q9N623 1-424 M74I/N75E/K76T/A220S/Q271A/N326S/I356T/R371I) with E75A, A271E
Procedure: as §1, §2
Drug uptake assays were performed as described previously[21],[22],[24],[34]. […] The direction of radio-labeled drug transport is here from the mostly acidic extracellular solution (pH 4.5 or 6.0, as indicated) into the oocyte cytosol (pH ∼ 7.2), which corresponds to the efflux of drug from the acidic digestive vacuole (pH 5.2) into the parasite cytoplasm (pH 7.2). The topology of PfCRT in the oolemma is such that both the N- and C-terminus face the extracellular milieu[3],[22]. In the parasite, the N- and C-terminus face the lumen of the digestive vacuole. […] For determination of the amount of drug uptake for each oocyte, the reaction medium was removed and the oocytes were washed three times with 2 ml of ice-cold ND96 buffer. Each oocyte was individually transferred to a scintillation vial containing 5% sodium dodecyl sulfate (200 μl) for lysis. […] Oocytes that were injected with water instead of RNA were analyzed in parallel, representing the uptake of a drug by diffusion and/or endogenous permeation pathways. […] The specific PfCRT-mediated uptake was determined by subtracting the corresponding background value measured in water-injected oocytes from that of PfCRT-expressing oocytes. […]

[3] = pH 4.5, single replicates, Fig 1d left
[4] = pH 6.0, single replicates, Fig 1d left

## CCN(CC)CCCC(C)Nc1ccnc2cc(Cl)ccc12 (stereo not drawn) [CQ, chloroquine]
[1]; E271A, 50 µM CQ, 1 h, mean ± SEM
  Activity at pH 4.5: 1.01 ± 0.09 pmol h-1 oocyte-1
[1]; E271A, CQ transport at pH 4.5 / pH 6.0
  R-value: 0.61 ± 0.09
[1]; [3]
  E271A transport activity pH 4.5: 1.17 pmol oocyte-1 h-1 and 1.13 pmol oocyte-1 h-1 and 0.65 pmol oocyte-1 h-1 and 0.98 pmol oocyte-1 h-1
[1]; [4]
  E271A transport activity pH 6.0: 1.98 pmol oocyte-1 h-1 and 1.71 pmol oocyte-1 h-1 and 1.20 pmol oocyte-1 h-1 and 2.10 pmol oocyte-1 h-1 and 1.74 pmol oocyte-1 h-1
[2]; E75A, 50 µM CQ, 1 h, mean ± SEM
  Activity at pH 4.5: 0.89 ± 0.11 pmol h-1 oocyte-1
[2]; E75A, CQ transport at pH 4.5 / pH 6.0
  R-value: 0.51 ± 0.05
[2]; [3]
  E75A transport activity pH 4.5: 0.71 pmol oocyte-1 h-1 and 1.15 pmol oocyte-1 h-1 and 0.80 pmol oocyte-1 h-1
[2]; pH 4.5 vs pH 6.0, Fig 1d left
  E75A R-value: 0.40 and 0.62 and 0.50
[2]; [4]
  E75A transport activity pH 6.0: 1.76 pmol oocyte-1 h-1 and 1.84 pmol oocyte-1 h-1 and 1.60 pmol oocyte-1 h-1
